# Laboratory results from patent publication US20060229433A1, “Modified antiviral peptides with increased activity and cell membrane affinity” (priority 2003, published 2006).
# Experiments:
# [1] = test system: HIV-1 NL 4-3; experiment: HIV-1 infection of C8166 cells (syncytia formation, p24 ELISA) with HIV-1 NL 4-3; type: cell-based; details: C8166 cells, HIV-1 subtype B NL 4-3; Table 3
# Description: HIV-1 NL 4-3 isolate (Adachi et al., 1986; Barré-Sinoussi et al., 1983) and highly cytopathic Zairian HIV-1 NDK isolate (Ellrodt et al., 1984) was propagated in permissive CEM cells (Nara et al., 1987). Uninfected CEM and C8166 (Salahuddin et al., 1983) were maintained in RPMI 1640 (R10) with ultraglutamine (cambrex, Vervier, Belgium), penicillin (100 U/ml), streptomycin (100 μg/ml), and 10% heat-inactivated fetal calf serum (Cambrex).
# (§1) Samples of 3×10^5/100 μL C8166 cells were preincubated in 96-well microtiter plates in culture medium containing various concentrations of peptide. After a 1 h treatment at 37° C., 100 μl of diluted viral solution of HIV-1 was added. The cells were exposed to the virus for 1 h at 37° C. at a multiplicity of infection of 1000 TCID50 per ml. The cells were washed three times and cultured at 3×10^5/ml of R10 with the treatment in 24-well plates incubated at 37° C. C8166 culture medium was replaced at Day-4 post-infection. The treatment was permanent before virus adsorption, during virus adsorption and after infection. Assays on C8166 cells have been performed at least twice and in duplicate. Toxicity was evaluated by daily cell count and trypan-blue exclusion assay. Infection of C8166 T-cells with HIV-1 was assessed by virus-induced cytopathic effects (syncytia formation) and by quantification of cell free p24 viral protein in the culture supernatants. Measurements of HIV-1 p24^gag concentration in the culture supernatants were achieved by ELISA (ALLIANCE® HIV-1 p24 kit, Perkin Elmer, life sciences, USA).
# [2] = test system: HIV-1 NL 4-3; experiment: Infection of human peripheral blood lymphocytes (PBL) with NL 4-3 strain, p24 ELISA; type: cell-based; details: PBL, NL 4-3 strain; Table 4
# Description: Peripheral blood lymphocytes from an HIV-1 negative donor were grown as described earlier, maintained in RPMI 1640 with ultraglutamine, supplemented with IL2 (20 μg/ml), penicillin (100 U/ml), streptomycin (100 μg/ml), and 10% heat-inactivated fetal calf serum. Cells were stimulated three days in the medium supplemented with phytohemagglutinin (20 U/ml PHA P, DIFCO, Detroit Mich.).
# Samples of 10^6/100 μL PBL cells were preincubated in 96-well microtiter plates in culture medium containing various concentrations of peptides. After a 1 h treatment at 37° C., 100 μl of diluted viral solution of HIV-1 was added. The cells were exposed to the virus for 1 h at 37° C. at a multiplicity of infection of 1000 TCID50 per ml. The cells were washed three times and cultured at […] of medium with the treatment in 24-well plates incubated at 37° in culture medium with the peptides in 5% CO2. The treatment was permanent before virus adsorption, during virus adsorption and after infection. The PBL culture medium was replaced every 3-4 days during three weeks always in the presence of peptide. The cell viability was assessed by cell counts and trypan-blue exclusion assay. The viral production in the culture supernatant was quantified by p24 ELISA test, as described earlier. All the experiments have been done in blind-tests. Tests have been done in duplicate.
# [3] = test system: HIV-1 89.6 subtype B dualtropic (X4R5); details: PBMC, Table 5
# [4] = test system: C8166 cells; experiment: Toxicity on C8166 cells (daily cell count, trypan-blue exclusion); type: cell-based; details: at doses up to 10 μM
# Description: as §1
Structure (SMILES),IC50 [1] [nM],IC50 [2] [nM],IC100 [2] [µM],IC50 [3] [nM],IC100 [3] [µM],toxicity on cells [4]
"CC(C)C[C@H](NC(=O)[C@@H]1CCCN1C(=O)[C@H](CO)NC(=O)[C@H](Cc1ccc(O)cc1)NC(=O)CNC(=O)[C@H](CCC(N)=O)NC(=O)[C@@H](N)CCCNC(=N)N)C(=O)NCCCC[C@H](NC(=O)[C@H](CC(C)C)NC(=O)[C@@H]1CCCN1C(=O)[C@H](CO)NC(=O)[C@H](Cc1ccc(O)cc1)NC(=O)CNC(=O)[C@H](CCC(N)=O)NC(=O)[C@@H](N)CCCNC(=N)N)C(=O)NCCCC[C@H](NC(=O)[C@H](CCCCNC(=O)[C@H](CC(C)C)NC(=O)[C@@H]1CCCN1C(=O)[C@H](CO)NC(=O)[C@H](Cc1ccc(O)cc1)NC(=O)CNC(=O)[C@H](CCC(N)=O)NC(=O)[C@@H](N)CCCNC(=N)N)NC(=O)[C@H](CC(C)C)NC(=O)[C@@H]1CCCN1C(=O)[C@H](CO)NC(=O)[C@H](Cc1ccc(O)cc1)NC(=O)CNC(=O)[C@H](CCC(N)=O)NC(=O)[C@@H](N)CCCNC(=N)N)C(=O)NCCCC[C@H](NC(=O)[C@H](CCCCNC(=O)[C@H](CCCCNC(=O)[C@H](CC(C)C)NC(=O)[C@@H]1CCCN1C(=O)[C@H](CO)NC(=O)[C@H](Cc1ccc(O)cc1)NC(=O)CNC(=O)[C@H](CCC(N)=O)NC(=O)[C@@H](N)CCCNC(=N)N)NC(=O)[C@H](CC(C)C)NC(=O)[C@@H]1CCCN1C(=O)[C@H](CO)NC(=O)[C@H](Cc1ccc(O)cc1)NC(=O)CNC(=O)[C@H](CCC(N)=O)NC(=O)[C@@H](N)CCCNC(=N)N)NC(=O)[C@H](CCCCNC(=O)[C@H](CC(C)C)NC(=O)[C@@H]1CCCN1C(=O)[C@H](CO)NC(=O)[C@H](Cc1ccc(O)cc1)NC(=O)CNC(=O)[C@H](CCC(N)=O)NC(=O)[C@@H](N)CCCNC(=N)N)NC(=O)[C@H](CC(C)C)NC(=O)[C@@H]1CCCN1C(=O)[C@H](CO)NC(=O)[C@H](Cc1ccc(O)cc1)NC(=O)CNC(=O)[C@H](CCC(N)=O)NC(=O)[C@@H](N)CCCNC(=N)N)C(=O)NCCC(=O)O [RL, (RQGYSPL)8-K4-K2-K-βA-OH, reference compound]",10,5,0.1,6,0.05,–
"C[C@H](NC(=O)[C@H](CCCNC(=N)N)NC(=O)CNC(=O)[C@@H]1CCCN1C(=O)CN)C(=O)N[C@@H](Cc1ccccc1)C(=O)NCCCC[C@H](NC(=O)[C@H](Cc1ccccc1)NC(=O)[C@H](C)NC(=O)[C@H](CCCNC(=N)N)NC(=O)CNC(=O)[C@@H]1CCCN1C(=O)CN)C(=O)NCCCC[C@H](NC(=O)[C@H](CCCCNC(=O)[C@H](Cc1ccccc1)NC(=O)[C@H](C)NC(=O)[C@H](CCCNC(=N)N)NC(=O)CNC(=O)[C@@H]1CCCN1C(=O)CN)NC(=O)[C@H](Cc1ccccc1)NC(=O)[C@H](C)NC(=O)[C@H](CCCNC(=N)N)NC(=O)CNC(=O)[C@@H]1CCCN1C(=O)CN)C(=O)NCCCC[C@H](NC(=O)[C@H](CCCCNC(=O)[C@H](CCCCNC(=O)[C@H](Cc1ccccc1)NC(=O)[C@H](C)NC(=O)[C@H](CCCNC(=N)N)NC(=O)CNC(=O)[C@@H]1CCCN1C(=O)CN)NC(=O)[C@H](Cc1ccccc1)NC(=O)[C@H](C)NC(=O)[C@H](CCCNC(=N)N)NC(=O)CNC(=O)[C@@H]1CCCN1C(=O)CN)NC(=O)[C@H](CCCCNC(=O)[C@H](Cc1ccccc1)NC(=O)[C@H](C)NC(=O)[C@H](CCCNC(=N)N)NC(=O)CNC(=O)[C@@H]1CCCN1C(=O)CN)NC(=O)[C@H](Cc1ccccc1)NC(=O)[C@H](C)NC(=O)[C@H](CCCNC(=N)N)NC(=O)CNC(=O)[C@@H]1CCCN1C(=O)CN)C(=O)NCCCCC(=O)O [S5, SPC3-(δ-aminovaleric acid)]",–,–,–,–,–,no toxicity
"C[C@H](NC(=O)[C@H](CCCNC(=N)N)NC(=O)CNC(=O)[C@@H]1CCCN1C(=O)CN)C(=O)N[C@@H](Cc1ccccc1)C(=O)NCCCC[C@H](NC(=O)[C@H](Cc1ccccc1)NC(=O)[C@H](C)NC(=O)[C@H](CCCNC(=N)N)NC(=O)CNC(=O)[C@@H]1CCCN1C(=O)CN)C(=O)NCCCC[C@H](NC(=O)[C@H](CCCCNC(=O)[C@H](Cc1ccccc1)NC(=O)[C@H](C)NC(=O)[C@H](CCCNC(=N)N)NC(=O)CNC(=O)[C@@H]1CCCN1C(=O)CN)NC(=O)[C@H](Cc1ccccc1)NC(=O)[C@H](C)NC(=O)[C@H](CCCNC(=N)N)NC(=O)CNC(=O)[C@@H]1CCCN1C(=O)CN)C(=O)NCCCC[C@H](NC(=O)[C@H](CCCCNC(=O)[C@H](CCCCNC(=O)[C@H](Cc1ccccc1)NC(=O)[C@H](C)NC(=O)[C@H](CCCNC(=N)N)NC(=O)CNC(=O)[C@@H]1CCCN1C(=O)CN)NC(=O)[C@H](Cc1ccccc1)NC(=O)[C@H](C)NC(=O)[C@H](CCCNC(=N)N)NC(=O)CNC(=O)[C@@H]1CCCN1C(=O)CN)NC(=O)[C@H](CCCCNC(=O)[C@H](Cc1ccccc1)NC(=O)[C@H](C)NC(=O)[C@H](CCCNC(=N)N)NC(=O)CNC(=O)[C@@H]1CCCN1C(=O)CN)NC(=O)[C@H](Cc1ccccc1)NC(=O)[C@H](C)NC(=O)[C@H](CCCNC(=N)N)NC(=O)CNC(=O)[C@@H]1CCCN1C(=O)CN)C(=O)NCCCC(=O)O [S6, SPC3-(γ-aminobutyric acid)]",–,–,–,–,–,no toxicity
